Results on two compounds are retold here after patent US11980688B2, “Nanoliposome-microbubble conjugate including drug for hair loss treatment encapsulated in nanoliposome and composition for alleviating or treating hair loss containing same” (priority 2018, dated 2024).

Each structure is given as a SMILES string.

One data set concerns C57BL/6J mice. Briefly: Testosterone-induced hair loss mouse model, hair growth. The data set is classed as in vivo. To be noted: FIG. 5. The method, then: The hair on the back of each of 6-week-old mice (C57BL/6J) was epilated using an animal epilator (Philips) and hair removal cream (Veet), after which testosterone was dissolved in a mixed solution of propylene glycol and ethanol (3:7 (v:v)) and applied every day at a concentration of 30 μg/ml, and thus an environment similar to that of human hair loss was made.
In the present experiment, the individual test groups were as follows (testosterone was applied to the skin in all cases). • (1) A control group (non-treated group); • (2) A group treated with testosterone; • (3) A group treated with testosterone and then subjected to skin application with the nanoliposome-microbubble conjugate of Example 1; • (4) A group treated with testosterone and then subjected to oral administration with a commercially available finasteride solution; • (5) A group treated with testosterone and then subjected to skin application with a commercially available finasteride solution; • (6) A group treated with testosterone and then subjected to skin application with the nanoliposome of Comparative Example 1; and • (7) A group subjected to skin application with the nanoliposome-microbubble conjugate of Example 1.
A nanoliposome-microbubble conjugate (HTP) configured such that the nanoliposome and the microbubble were conjugated and dispersed at a ratio of 2:1 was used. 200 μl thereof, having a total finasteride content of 1 μg, was applied on the entire epilated back of the mice using a plastic spatula, and after 3 min, was exposed to ultrasound using a medical sonicator. Here, the nanoliposome-microbubble conjugate was applied five times at an interval of one day. Under the same conditions, the total finasteride content was matched in the group treated with the commercially available finasteride solution in lieu of the solution of Example 1 or Comparative Example 1. […]

Another data set concerns DPCs. Briefly: Cell viability, WST-1 assay, testosterone-induced apoptosis. The data set is classed as cell-based. To be noted: 200 μM testosterone, every 24 hr for 4 days, DPCs compared to 3T3 fibroblasts, FIG. 4 left. The method, then: Cell viability was evaluated through WST-1 assay (EZ-cytox Cell Viability Assay Kit). DPCs and 3T3 fibroblasts were cultured at a density of 1×10^4/well in a 96-well plate for 24 hr. Here, the culture medium was replaced with a new medium containing 200 μM testosterone, and after 24 hr, a WST-1 reagent was added thereto. The WST-1 reagent was added in an amount of 10% of the culture broth, and after 1 hr, absorbance was measured at 460 nm and thus cell survival and proliferation were compared with a control group (non-treated group). Cell survival was measured at an interval of 24 hr for 4 days after testosterone treatment.
After treatment with the nanoliposome-microbubble conjugate (HTP) of the present invention before treatment with testosterone in the same manner, the culture medium was replaced with a new medium containing 200 μM testosterone, the subsequent procedures were conducted as above, and the state of cells was observed. A comparative group was treated with the nanoliposome-microbubble conjugate (HTP) alone.
Background: Formazan colour is commonly taken as a measure of viable cells.

For `CC(C)(C)NC(=O)[C@H]1CC[C@H]2[C@@H]3CC[C@H]4NC(=O)C=C[C@]4(C)[C@H]3CC[C@]12C` [commercially available finasteride drug, finasteride], the “hair growth after testosterone, skin application” value with C57BL/6J mice (testosterone 30 μg/ml daily, total finasteride 1 μg, applied five times at one-day interval) is “hair started growing on the seventh week”. For the same compound, in the data set with C57BL/6J mice (testosterone daily, oral dose 10 times the application dose, five times), the “hair growth after testosterone, oral administration” value is “hair started growing on the seventh week”.
Take `C[C@]12CC[C@H]3[C@@H](CCC4=CC(=O)CC[C@@]43C)[C@@H]1CC[C@@H]2O` [testosterone]: the “extent of apoptosis over time” value in the data set with DPCs is “greatly increased in DPCs compared to 3T3 cells”. The “hair growth, testosterone alone” value with C57BL/6J mice (testosterone 30 μg/ml applied every day to epilated back) is on record as “grew hardly any hair”.
